Legend:
[1] = tested on: LIF expression in mouse neuroprogenitors; experiment: LIF induction in mouse neuroprogenitors; type: cell-based; details: from mouse embryos or the subventricular area of adult mice; data not shown
LIF protein secretion = experiment: Secreted LIF protein by ELISA in GBM1 neurospheres; type: cell-based, human; details: 48 hours, 100 pM TGFβ1
Description: (§1) FIG. 3. TGFβ induces the expression of LIF in PCTC and GBM neurospheres. (A) PCTC cells of the 11 samples of the indicated GEM (GBM1-11) were treated with 100 pM TGFβ1 for 3 hours in medium without serum or left untreated, and the expression levels of LIF were determined by means of qRT-PCR. The g-actin was determined as an internal normalization control. (B) GBM neurosphere cells were treated as in A and the expression levels of LIF were determined by means of qRT-PCR as in A. (C) GBM neurospheres were incubated with 100 pM TGFβ1 and/or 2 μM TβRI inhibitor for 3 hours in medium without serum and the mRNA levels of LIF were determined by means of qRT-PCR as in A. (D) GBM1 neurospheres were incubated with 100 pM TGFβ1, TGFβ2 and TGFβ3 for 3 hours in medium without serum and the mRNA levels of LIF were determined by means of qRT-PCR as in A. (E) The levels of LIF protein secreted were determined by means of ELISA in GBM1 neurospheres after 48 hours of treatment with 100 pM TGFβ1.
For the quantitative determination of the levels of LIF protein secreted to the medium, the human LIF ELISA kit (R&D Systems) was used, following the manufacturer's specifications. […]
It was decided to investigate the molecular mechanisms responsible for the effect of TGFβ on GICs. […] A panel of PCTCs derived from 11 different human GBMs was treated with TGFβ for 3 hours and the levels of LIF mRNA were determined.

[2] = tested on: LIF expression in PCTC cells; experiment: LIF mRNA by qRT-PCR in PCTCs of human GBM; type: cell-based; details: PCTCs from 11 human GBMs, 100 pM TGFβ1, 3 hours, medium without serum
Description: as §1, with “TGFβ1. […]” for “TGFβ1.”
qRT-PCR was performed using Taqman probes from Applied Biosystems, according to the manufacturer's recommendations. The reactions were carried out in a ABI 7000 sequence detector (Perkin Elmer) and the results were expressed as the fold change calculated by means of the DDCt method relative to the control sample or the first quantified sample. […]

Substance: TGFβ: TGFβ1 (R&D Systems), used at 100 pM according to the figure legends
- induction of LIF in mouse neuroprogenitors [1]: did not induce LIF
- secretion of the LIF protein (ELISA, conditioned neurosphere medium) (LIF protein secretion): increase in the secretion of the LIF protein
- levels of LIF mRNA in PCTCs [2]: induced LIF in all the PCTCs assayed
